Experimental data: patent US20190239509A1, “METHOD OF CONTROLLING PLANTS” (SYNGENTA PARTICIPATIONS AG, priority 2016, published 2019)

Key:
Format in all cases: in vivo
[1] = system: Brachiaria decumbens (BRADC); assay: B3 drilled field trial Brazil, post-emergence, BRADC; conditions: 28 days after application
Procedure: (§1) Seeds of a variety of test species were used in drilled field trials to look at the control of important weed species present in corn crops as well as the effect on soybean (a volunteer crop in corn). Trials were carried out in Brazil in the summer season and the second season.
(§2) Plot size was 10-15 m^2, and two replicates were carried out per treatment. Plants were treated post-emergence between the 2 and 4 leaf stage. Species tested were Amaranthus retroflexus (AMARE), Ipomoea grandifolia (IAQGR), Digitaria horizontalis (DIGHO), Bidens pilosa (BIDPI), Eleusine indica (ELEIN), Brachiaria decumbens (BRADC), Centrus echinatus (CCHEC), Euphorbia heterophylla (EPPHL), Brachiaria plantaginea (BRAPL) and Glycine max (GLXMA; soybean). Fungicides and insecticides were used as necessary for plant health. The test was evaluated at 28 days after application with 100=total damage to plant and 0=no damage to plant.
(§3) Expected results were calculated using the Colby Formula.

[2] = system: Ipomoea grandifolia (IAQGR); assay: B3 drilled field trial Brazil, post-emergence, IAQGR; conditions: 28 days after application
Procedure: as §1, §2, §3

[3] = system: Glycine max (GLXMA; soybean); assay: B3 drilled field trial Brazil, post-emergence, soybean; conditions: 28 days after application
Procedure: as §1, §2, §3

[4] = system: Bidens pilosa (BIDPI); assay: B3 drilled field trial Brazil, post-emergence, BIDPI; conditions: 28 days after application
Procedure: as §1, §2, §3

[5] = system: Digitaria horizontalis (DIGHO); assay: B3 drilled field trial Brazil, post-emergence, DIGHO; conditions: 28 days after application
Procedure: as §1, §2, §3

[6] = system: soybean (Glycine max GLXMA); assay: B2 drilled field trial Brazil, post-emergence, soybean; conditions: 100=total damage, 0=no damage; for GLXMA 9DAA Observed: 9 days after application; for GLXMA 37 DAA Observed: 37 days after application
Procedure: (§4) Seeds of a variety of test species were used in drilled field trials to look at the control of important weed species present in corn crops as well as the effect on soybean (a volunteer crop in corn). Trials were carried out in Brazil in the summer season.
(§5) Plot size was 10-12 m^2, and two replicates were carried out per treatment. Plants were treated post-emergence at the 4 leaf stage. Fungicides and insecticides were used as necessary for plant health. The test was evaluated at 7 and 30 days after application (Amaranthus viridis (AMAVI), Bidens pilosa (BIDPI), Euphorbia heterophylla (EPPHL)) and 9 and 37 days after application (Brachiaria plantaginea (BRAPL) and soybean (Glycine max GLXMA) with 100=total damage to plant and 0=no damage to plant.
as §3

[7] = system: Euphorbia heterophylla (EPPHL); assay: B3 drilled field trial Brazil, post-emergence, EPPHL; conditions: Summer season, 28 days after application
Procedure: as §1, §2, §3

[8] = system: Brachiaria plantaginea (BRAPL); assay: B3 drilled field trial Brazil, post-emergence, BRAPL; conditions: Summer season, 28 days after application
Procedure: as §1, §2, §3

[9] = system: Centrus echinatus (CCHEC); assay: B3 drilled field trial Brazil, post-emergence, CCHEC; conditions: 28 days after application
Procedure: as §1, §2, §3

[10] = system: Amaranthus viridis (AMAVI); assay: B2 drilled field trial Brazil, post-emergence, AMAVI; conditions: 100=total damage, 0=no damage; for AMAVI 7DAA Observed: 7 days after application; for AMAVI 30 DAA Observed: 30 days after application
Procedure: as §4, §5, §3

[11] = system: Amaranthus retroflexus (AMARE); assay: B3 drilled field trial Brazil, post-emergence, AMARE; conditions: 28 days after application, 100=total damage, 0=no damage
Procedure: as §1, §2, §3

[12] = system: Brachiaria plantaginea (BRAPL); assay: B2 drilled field trial Brazil, post-emergence, BRAPL; conditions: 100=total damage, 0=no damage; for BRAPL 9DAA Observed: 9 days after application; for BRAPL 37 DAA Observed: 37 days after application
Procedure: as §4, §5, §3

[13] = system: Eleusine indica (ELEIN); assay: B3 drilled field trial Brazil, post-emergence, ELEIN; conditions: 28 days after application
Procedure: as §1, §2, §3

[14] = system: Euphorbia heterophylla (EPPHL); assay: B2 drilled field trial Brazil, post-emergence, EPPHL; conditions: 100=total damage, 0=no damage; for EPPHL 7DAA Observed: 7 days after application; for EPPHL 30 DAA Observed: 30 days after application
Procedure: as §4, §5, §3

[15] = system: Bidens pilosa (BIDPI); assay: B2 drilled field trial Brazil, post-emergence, BIDPI; conditions: 100=total damage, 0=no damage; for BIDPI 7DAA Observed: 7 days after application; for BIDPI 30 DAA Observed: 30 days after application
Procedure: as §4, §5, §3

## CS(=O)(=O)c1ccc(C(=O)C2C(=O)CCCC2=O)c([N+](=O)[O-])c1 [Mesotrione, reference compound]
[1]; Second season, 75 g ai/ha
  Observed damage (100=total damage to plant, 0=no damage): 10
[1]; Second season, 125 g ai/ha
  Observed damage (100=total damage to plant, 0=no damage): 13
[1]; Summer season, 75 g ai/ha
  Observed damage (100=total damage to plant, 0=no damage): 48
[1]; Summer season, 125 g ai/ha
  Observed damage (100=total damage to plant, 0=no damage): 50
[2]; Second season, 75 g ai/ha
  Observed damage (100=total damage to plant, 0=no damage): 79
[2]; Second season, 125 g ai/ha
  Observed damage (100=total damage to plant, 0=no damage): 87
[2]; Summer season, 75 g ai/ha
  Observed damage (100=total damage to plant, 0=no damage): 63
[2]; Summer season, 125 g ai/ha
  Observed damage (100=total damage to plant, 0=no damage): 96
[3]; Second season, 75 g ai/ha
  Observed damage (100=total damage to plant, 0=no damage): 83
[3]; Second season, 125 g ai/ha
  Observed damage (100=total damage to plant, 0=no damage): 89
[3]; Summer season, 75 g ai/ha
  Observed damage (100=total damage to plant, 0=no damage): 69
[3]; Summer season, 125 g ai/ha
  Observed damage (100=total damage to plant, 0=no damage): 92
[4]; Second season, 75 g ai/ha
  Observed damage (100=total damage to plant, 0=no damage): 68
[4]; Second season, 125 g ai/ha
  Observed damage (100=total damage to plant, 0=no damage): 70
[4]; Summer season, 75 g ai/ha
  Observed damage (100=total damage to plant, 0=no damage): 53
[4]; Summer season, 125 g ai/ha
  Observed damage (100=total damage to plant, 0=no damage): 74
[5]; Second season, 75 g ai/ha
  Observed damage (100=total damage to plant, 0=no damage): 40
[5]; Second season, 125 g ai/ha
  Observed damage (100=total damage to plant, 0=no damage): 70
[5]; Summer season, 75 g ai/ha
  Observed damage (100=total damage to plant, 0=no damage): 50
[5]; Summer season, 125 g ai/ha
  Observed damage (100=total damage to plant, 0=no damage): 72
[6]; 75 g ai/ha
  GLXMA 9DAA Observed: 45
  GLXMA 37 DAA Observed: 65
[6]; 125 g ai/ha
  GLXMA 9DAA Observed: 55
  GLXMA 37 DAA Observed: 88
[7]; 75 g ai/ha
  Observed damage (100=total damage to plant, 0=no damage): 40
[7]; 125 g ai/ha
  Observed damage (100=total damage to plant, 0=no damage): 58
[8]; 75 g ai/ha
  Observed damage (100=total damage to plant, 0=no damage): 15
[8]; 125 g ai/ha
  Observed damage (100=total damage to plant, 0=no damage): 28
[9]; Second season, 75 g ai/ha
  Observed damage (100=total damage to plant, 0=no damage): 0
[9]; Second season, 125 g ai/ha
  Observed damage (100=total damage to plant, 0=no damage): 0
[9]; Summer season, 75 g ai/ha
  Observed damage (100=total damage to plant, 0=no damage): 0
[9]; Summer season, 125 g ai/ha
  Observed damage (100=total damage to plant, 0=no damage): 0
[10]; 75 g ai/ha
  AMAVI 7DAA Observed: 25
  AMAVI 30 DAA Observed: 30
[10]; 125 g ai/ha
  AMAVI 7DAA Observed: 65
  AMAVI 30 DAA Observed: 50
[11]; 75 g ai/ha
  AMARE Second season Observed: 40
  AMARE Summer season Observed: 73
[11]; 125 g ai/ha
  AMARE Second season Observed: 54
  AMARE Summer season Observed: 85
[12]; 75 g ai/ha
  BRAPL 9DAA Observed: 53
  BRAPL 37 DAA Observed: 7
[12]; 125 g ai/ha
  BRAPL 9DAA Observed: 65
  BRAPL 37 DAA Observed: 0
[13]; Second season, 75 g ai/ha
  Observed damage (100=total damage to plant, 0=no damage): 20
[13]; Second season, 125 g ai/ha
  Observed damage (100=total damage to plant, 0=no damage): 50
[13]; Summer season, 75 g ai/ha
  Observed damage (100=total damage to plant, 0=no damage): 53
[13]; Summer season, 125 g ai/ha
  Observed damage (100=total damage to plant, 0=no damage): 58
[14]; 75 g ai/ha
  EPPHL 7DAA Observed: 30
  EPPHL 30 DAA Observed: 20
[14]; 125 g ai/ha
  EPPHL 7DAA Observed: 40
  EPPHL 30 DAA Observed: 35
[15]; 75 g ai/ha
  BIDPI 7DAA Observed: 28
  BIDPI 30 DAA Observed: 28
[15]; 125 g ai/ha
  BIDPI 7DAA Observed: 40
  BIDPI 30 DAA Observed: 40
